# Test results taken from PubChem BioAssay (NCI).
# Several values for one entry are separate records, joined by “and”; a condition that tells them apart may be missing. Identical values can stand only once.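 Step 1: Grow cells in 96-well plates. Step 2: Expose to compound for 48 hours at 5 concentrations. Step 3: Interpolate endpoints linearly; if unreached, use highest concentration. GI50: concentration for 50% inhibition of growth. TGI: concentration producing complete growth inhibition.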
# What was measured:
# Assay in all cases: DTP human tumour cell line panel, 48 h
# OVCAR-8 ovarian = system: OVCAR-8 ovarian
# HT29 colon = system: HT29 colon
# DU-145 prostate = system: DU-145 prostate
# SK-MEL-2 melanoma = system: SK-MEL-2 melanoma
# SF-268 CNS = system: SF-268 CNS
# EKVX NSCLC = system: EKVX NSCLC
# COLO 205 colon = system: COLO 205 colon
# SF-539 CNS = system: SF-539 CNS
# MOLT-4 leukemia = system: MOLT-4 leukemia
# M14 melanoma = system: M14 melanoma
# ACHN renal = system: ACHN renal
# NCI-H460 lung = system: NCI-H460 lung
# MDA-MB-435 = system: MDA-MB-435
# HCT-15 colon = system: HCT-15 colon
# A549 NSCLC = system: A549 NSCLC
# CCRF-CEM leukemia = system: CCRF-CEM leukemia
# NCI-H522 lung = system: NCI-H522 lung
# SK-MEL-28 melanoma = system: SK-MEL-28 melanoma
# TK-10 renal = system: TK-10 renal
# UACC-257 melanoma = system: UACC-257 melanoma
# 786-0 renal = system: 786-0 renal
# SNB-19 CNS = system: SNB-19 CNS
# IGROV1 ovarian = system: IGROV1 ovarian
# UACC-62 melanoma = system: UACC-62 melanoma
# RPMI-8226 leukemia = system: RPMI-8226 leukemia
# SW-620 colon = system: SW-620 colon
# NCI-H23 lung = system: NCI-H23 lung
# MALME-3M melanoma = system: MALME-3M melanoma
# LOX IMVI melanoma = system: LOX IMVI melanoma
# MDA-MB-231 breast = system: MDA-MB-231 breast
# OVCAR-4 ovarian = system: OVCAR-4 ovarian
# MDA-N = system: MDA-N
# T-47D breast = system: T-47D breast
# KM12 colon = system: KM12 colon
# MCF7 breast = system: MCF7 breast
# OVCAR-5 ovarian = system: OVCAR-5 ovarian
# U251 CNS = system: U251 CNS
# CAKI-1 renal = system: CAKI-1 renal
# SK-MEL-5 melanoma = system: SK-MEL-5 melanoma
# HS 578T breast = system: HS 578T breast
# NCI/ADR-RES ovarian = system: NCI/ADR-RES ovarian
# A498 renal = system: A498 renal
# SN12C renal = system: SN12C renal
# HOP-92 NSCLC = system: HOP-92 NSCLC
# HCT-116 colon = system: HCT-116 colon
# BT-549 breast = system: BT-549 breast
# HL-60(TB) leukemia = system: HL-60(TB) leukemia
# PC-3 prostate = system: PC-3 prostate
# HOP-62 NSCLC = system: HOP-62 NSCLC
# HCC-2998 colon = system: HCC-2998 colon
# SNB-75 CNS = system: SNB-75 CNS
# K-562 leukemia = system: K-562 leukemia
# UO-31 renal = system: UO-31 renal
# SK-OV-3 ovarian = system: SK-OV-3 ovarian
# SR leukemia = system: SR leukemia
# RXF 393 renal = system: RXF 393 renal
# SF-295 CNS = system: SF-295 CNS
# OVCAR-3 ovarian = system: OVCAR-3 ovarian
# NCI-H226 lung = system: NCI-H226 lung
compound,measurement,setting,value
CCOP(=O)(OCC)C(N)c1ccc(Cl)cc1 (stereo unspecified),TGI,OVCAR-8 ovarian,> 100 µM
same,TGI,HT29 colon,> 100 µM
same,TGI,DU-145 prostate,> 100 µM
same,TGI,SK-MEL-2 melanoma,> 100 µM
same,TGI,SF-268 CNS,> 100 µM
same,TGI,EKVX NSCLC,> 100 µM
same,TGI,COLO 205 colon,> 100 µM
same,TGI,SF-539 CNS,> 100 µM
same,TGI,MOLT-4 leukemia,> 100 µM
same,TGI,M14 melanoma,> 100 µM
same,TGI,ACHN renal,> 100 µM
same,TGI,NCI-H460 lung,> 100 µM
same,TGI,MDA-MB-435,> 100 µM
same,TGI,HCT-15 colon,> 100 µM
same,TGI,A549 NSCLC,> 100 µM
same,TGI,CCRF-CEM leukemia,> 100 µM
same,TGI,NCI-H522 lung,> 100 µM
same,TGI,SK-MEL-28 melanoma,> 100 µM
same,TGI,TK-10 renal,> 100 µM
same,TGI,UACC-257 melanoma,> 100 µM
same,TGI,786-0 renal,> 100 µM
same,TGI,SNB-19 CNS,> 100 µM
same,TGI,IGROV1 ovarian,> 100 µM
same,TGI,UACC-62 melanoma,> 100 µM
same,TGI,RPMI-8226 leukemia,> 100 µM
same,TGI,SW-620 colon,> 100 µM
same,TGI,NCI-H23 lung,> 100 µM
same,TGI,MALME-3M melanoma,> 100 µM
same,TGI,LOX IMVI melanoma,> 100 µM
same,TGI,MDA-MB-231 breast,> 100 µM
same,TGI,OVCAR-4 ovarian,> 100 µM
same,TGI,MDA-N,> 100 µM
same,TGI,T-47D breast,> 100 µM
same,TGI,KM12 colon,> 100 µM
same,TGI,MCF7 breast,> 100 µM
same,TGI,OVCAR-5 ovarian,> 100 µM
same,TGI,U251 CNS,> 100 µM
same,TGI,CAKI-1 renal,> 100 µM
same,TGI,SK-MEL-5 melanoma,> 100 µM
same,TGI,HS 578T breast,> 100 µM
same,TGI,NCI/ADR-RES ovarian,> 100 µM
same,TGI,A498 renal,> 100 µM
same,TGI,SN12C renal,> 100 µM
same,TGI,HOP-92 NSCLC,> 100 µM
same,TGI,HCT-116 colon,> 100 µM
same,TGI,BT-549 breast,> 100 µM
same,TGI,HL-60(TB) leukemia,> 100 µM
same,TGI,PC-3 prostate,> 100 µM
CCCCCCCCCCC1OC([C@@H](O)CC[C@H](O)C2CC[C@@H](CCCCCCCC(O)CC3=CC(C)OC3=O)O2)CCC1O (stereo partly specified),GI50,OVCAR-8 ovarian,9.96 µM
same,TGI,OVCAR-8 ovarian,> 25 µM
same,TGI,DU-145 prostate,> 25 µM
same,GI50,SK-MEL-2 melanoma,6.55 µM
same,TGI,SK-MEL-2 melanoma,> 18.1 µM
same,GI50,HOP-62 NSCLC,6.29 µM
same,TGI,HOP-62 NSCLC,> 25 µM
same,GI50,SF-268 CNS,23.6 µM
same,TGI,SF-268 CNS,> 25 µM
same,GI50,EKVX NSCLC,9.5 µM
same,TGI,EKVX NSCLC,> 25 µM
same,TGI,HCC-2998 colon,> 25 µM
same,GI50,COLO 205 colon,5.47 µM
same,TGI,COLO 205 colon,> 19.8 µM
same,TGI,SF-539 CNS,> 25 µM
same,GI50,MOLT-4 leukemia,2.76 µM
same,TGI,MOLT-4 leukemia,> 13.9 µM
same,GI50,M14 melanoma,4.81 µM
same,TGI,M14 melanoma,> 17.5 µM
same,GI50,ACHN renal,1.62 µM
same,TGI,ACHN renal,8.79 µM and > 25 µM
same,GI50,NCI-H460 lung,5.08 µM
same,TGI,NCI-H460 lung,> 25 µM
same,GI50,MDA-MB-435,1.59 µM
same,TGI,MDA-MB-435,5.58 µM and > 20.2 µM
same,GI50,HCT-15 colon,7.58 µM
same,TGI,HCT-15 colon,> 25 µM
same,GI50,A549 NSCLC,2.49 µM
same,TGI,A549 NSCLC,> 25 µM
same,TGI,CCRF-CEM leukemia,> 25 µM
same,GI50,SNB-75 CNS,20.7 µM
same,TGI,SNB-75 CNS,> 25 µM
same,TGI,NCI-H522 lung,> 25 µM
same,GI50,SK-MEL-28 melanoma,5.34 µM
same,TGI,SK-MEL-28 melanoma,> 25 µM
same,TGI,TK-10 renal,> 25 µM
same,GI50,UACC-257 melanoma,2.51 µM
same,TGI,UACC-257 melanoma,> 18.4 µM
same,TGI,786-0 renal,> 25 µM
same,GI50,SNB-19 CNS,2.9 µM
same,TGI,SNB-19 CNS,> 25 µM
same,GI50,K-562 leukemia,2.48 µM
same,TGI,K-562 leukemia,> 25 µM
same,GI50,IGROV1 ovarian,10.6 µM
same,TGI,IGROV1 ovarian,> 25 µM
same,TGI,UACC-62 melanoma,> 25 µM
same,TGI,RPMI-8226 leukemia,15.4 µM
same,GI50,UO-31 renal,2.66 µM
same,TGI,UO-31 renal,10.4 µM
same,GI50,SW-620 colon,4.37 µM
same,TGI,SW-620 colon,> 25 µM
same,TGI,SK-OV-3 ovarian,> 25 µM
same,GI50,NCI-H23 lung,1.35 µM
same,TGI,NCI-H23 lung,> 25 µM
same,TGI,SR leukemia,16.5 µM
same,TGI,MALME-3M melanoma,> 25 µM
same,GI50,LOX IMVI melanoma,1.71 µM
same,TGI,LOX IMVI melanoma,> 12.5 µM
same,TGI,RXF 393 renal,> 18.6 µM
same,GI50,MDA-MB-231 breast,5.88 µM
same,TGI,MDA-MB-231 breast,> 25 µM
same,TGI,OVCAR-4 ovarian,> 25 µM
same,TGI,MDA-N,> 25 µM
same,TGI,T-47D breast,> 25 µM
same,GI50,SF-295 CNS,4.31 µM
same,TGI,SF-295 CNS,> 25 µM
same,GI50,KM12 colon,10.3 µM
same,TGI,KM12 colon,> 25 µM
same,GI50,MCF7 breast,1.34 µM
same,TGI,MCF7 breast,> 25 µM
same,TGI,OVCAR-5 ovarian,> 25 µM
same,GI50,OVCAR-3 ovarian,1.69 µM
same,TGI,OVCAR-3 ovarian,> 23.5 µM
same,GI50,U251 CNS,4 µM
same,TGI,U251 CNS,> 25 µM
same,TGI,CAKI-1 renal,> 25 µM
same,GI50,SK-MEL-5 melanoma,1.81 µM
same,TGI,SK-MEL-5 melanoma,9.13 µM and > 10.5 µM
same,GI50,NCI/ADR-RES ovarian,6.4 µM
same,TGI,NCI/ADR-RES ovarian,> 25 µM
same,TGI,NCI-H226 lung,> 25 µM
same,TGI,A498 renal,> 25 µM
same,TGI,SN12C renal,> 25 µM
same,GI50,HOP-92 NSCLC,3.03 µM
same,TGI,HOP-92 NSCLC,> 25 µM
same,GI50,HCT-116 colon,6 µM
same,TGI,HCT-116 colon,> 25 µM
same,GI50,BT-549 breast,2.34 µM
same,TGI,BT-549 breast,7.53 µM and > 25 µM
same,GI50,HL-60(TB) leukemia,4.47 µM
same,TGI,HL-60(TB) leukemia,> 25 µM
same,GI50,PC-3 prostate,2.92 µM
same,TGI,PC-3 prostate,> 25 µM
